Results published in patent US20210198633A1, “METHODS AND COMPOSITIONS COMPRISING TANKYRASE INHIBITORS FOR GENERATING INSULIN PRODUCING CELLS” (UNIVERSITY HEALTH NETWORK, priority 2018, published 2021).
Entries after “also recorded” stand apart in the source; their conditions may differ.

Tests used:
Type in all cases: cell-based, human
H1 cell line = assay: C-Peptide+/NKX6-1+ beta-like cells by flow cytometry at day 23; conditions: treatment day 8 to day 13: WIKI4 9 uM, G007-LK 5 uM, JW74 10 uM, JW55 5 uM
Text: Flow cytometry analysis for C-Peptide (a surrogate for insulin) and NKX6.1 performed at day 23 of differentiation, showing high percentage of C-peptide+/NKX6-1+ cells (beta-like cells). Numbers in each quadrant indicate the relevant percentage of the total population. Results shown are from H1 cell line.
FIG. 7 show specific tankyrase inhibitors generate high percentages of beta-like cells as measured by C-peptide/NKX6-1 double positive cells using H1 cell line. […] Results shown are from H1 cell line. Error bars represent SEM. n=4 for all, n=1 for JW74.

INS^GFP/W reporter line [1] = assay: INSULIN:GFP+ cells by fluorescence imaging and flow cytometric analysis after further differentiation; conditions: NE + IWR-1-endo 3 uM or WIKI4 9 uM day 8 to day 13; read day 21/23; compared with XAV939 1.5 uM and MN64 3 uM
Procedure: Cells treated with various tankyrase pathway inhibitors (Cell treated with NE alone or NE in combination with tankyras inhibitors (NE+XAV939 1.5 uM, NE+IWR-1-endo 3 uM, NE+MN64 3 uM, NE+WIKI4 9 uM)) between day 8 and day 13 of differentiation were differentiated for an additional 10 days using a modified version of the differentiation protocol developed by Rezania and Pagliuca (Rezania et al 2014, Pagliuca 2014). Representative bright field and fluorescent images of cellular aggregates are shown at day 23 of differentiation. Results shown are from INS^GFP/W reporter line.
Quantification of the percentage of INSULIN:GFP+ cells measured by flow cytometric analysis at day 23 of differentiation, arising from cells treated or untreated with different compounds: XAV939, IWR-1, MN64, WIKI4. Cells were treated using NE (−) or NE in combination with different compounds: XAV939 1.5 uM, IWR-1 3 uM, MN64 3 uM, WIKI4 9 uM. Results shown are from INS^GFP/W reporter line, Error bars represent standard deviation. n=4.
In this report we present a new method to generate PDX1+/NKX6.1+ endoderm from a variety of hPSC lines. […] (See FIGS. 1-5).

INS^GFP/W reporter line [2] = assay: Insulin transcript by QPCR normalized to TBP; conditions: day 23; WIKI4 9 uM compared to IWR-1 3 uM, MN64 3 uM, XAV939 1.5 uM
Procedure: Cells treated with different tankyrase inhibitors express different amounts of insulin transcript, as measured by QPCR. Shown is the relative expression of insulin transcript normalized to the housekeeping gene TBP (TATA Binding Protein) at day 23 of differentiation, where pancreatic progenitor cells were generated by treating cells with or without XAV939, IWR-1, MN64, WIKI4 (XAV939 1.5 uM, IWR-1 3 uM, MN64 3 uM, WIKI4 9 uM). Adult pancreas is used as positive control. Results shown are from INS^GFP/W reporter line. Error bars represent standard deviation. n=3.

SMILES | percentage of C-Peptide+/NKX6-1+ beta-like cells (H1 cell line) | percentage of INSULIN:GFP+ cells (INS^GFP/W reporter line [1]) | relative expression of insulin transcript (INS mRNA) normalized to TBP (INS^GFP/W reporter line [2])
CS(=O)(=O)c1ccc(-c2nnc(/C=C/c3nnc(-c4ccc(C#N)cc4)o3)n2-c2ccccc2Cl)nc1 [G007-LK] | able to generate a population of C-peptide+/NKX6.1+ insulin-expressing beta-like cells | – | –
COc1ccc(-n2c(SCCCN3C(=O)c4cccc5cccc(c45)C3=O)nnc2-c2ccncc2)cc1 [WIKI4] | high percentages of C-Peptide+/NKX6-1+ insulin expressing beta-like cells; also recorded: able to generate a population of C-peptide+/NKX6.1+ insulin-expressing beta-like cells | higher percentages of INSGFP+ cells; also recorded: higher percentages of Insulin:GFP+ cells | higher levels of INS mRNA
COc1ccc(C2(CNC(=O)c3ccc(NC(=O)c4ccco4)cc3)CCOCC2)cc1 [JW55] | able to generate a population of C-peptide+/NKX6.1+ insulin-expressing beta-like cells | – | –
O=C(Nc1cccc2cccnc12)c1ccc(N2C(=O)[C@@H]3[C@H](C2=O)[C@@H]2C=C[C@H]3C2)cc1 [IWR-1] | – | higher percentages of INSGFP+ cells; also recorded: higher percentages of Insulin:GFP+ cells | –
COc1ccc(-n2c(SCc3nc(-c4ccc(C)cc4)no3)nnc2-c2ccncc2)cc1 [JW74] | able to generate a population of C-peptide+/NKX6.1+ insulin-expressing beta-like cells | – | –
